Our source for the Ki and IC50 values is patent US9187411B2, “Leukotriene B4 antagonist compound” (Eli Lilly and Company, priority 2012, dated 2015).

Like-named read-outs stand apart in the source and are kept apart here.

One experiment concerns the target T1, hBLT1 (Homo sapiens, UniProt Q15722).
T1 construct: expressed in transfected cells; membrane preparation
As to the kind of experiment: [3H]-LTB4 binding assay in hBLT1 containing membranes. Particulars: [3H]-LTB4 displacement, hBLT1/CHO-K1 membranes, Ki = IC50/2.7. How it is done: [^3H]-LTB4 and known BLT1 and BLT2 antagonists are used to generate LTB4 displacement curves and IC50 values for compounds of the present invention. Receptor inhibition by compounds of the present invention is determined relative to BLT1 inhibitor and BLT2 inhibitor reference molecules to obtain percent efficacies.
hBLT1 Test Compound Preparations: For hBLT1 assays, test compounds are prepared in DMSO to make up a 10 mM stock solution. […]
hBLT1/CHO-K1 Stable Xcell Line Preparations: Human BLT1 receptor DNA (National Center for Biotechnology Information (NCBI), Reference Sequence NM_181657) is synthesized and cloned into expression vector pcDNA3.1/Hygro(+) (Invitrogen V87020). […] Single clones are isolated and screened for BLT1 expression and function using Western Blot analysis and Fluorometric Imaging Plate Reader (FLIPR®) calcium release assay. […]
[^3H]-LTB4 (30 μL of 1.3 nM, PerkinElmer NET-852) is aliquoted into a 96-well Millipore Multiscreen-filter binding plate (catalogue number MAFBNOB10) which is pre-wetted with Buffer A (50 mM HEPES pH 7.4, 10 mM MgCl2, 10 mM NaCl, 10% glycerol, 1% BSA). […] The plate is allowed to sit for 16 h and then read on a Packard Instrument Company Topcount® for 1 min. […] The IC50s are converted to Ki values by dividing by 2.7 (previously calculated). […]

Experiment [1] has as its system LTB4-induced phosphorylation of ERK in monocytes. As to the kind of experiment: Mouse pERK assay in whole blood. In kind it is cell-based, 129SvEv mice. Particulars: Monocyte, 20 nM LTB4. The protocol: The ability of the compound of Example 2 to block LTB4-induced signaling through BLT1 was assessed in whole blood obtained from healthy human volunteers and from 129SvEv mice that are the model strain for preclinical AAA efficacy evaluation.
Whole blood is collected from 129SvEv mice in 50 mM EDTA (Gibco). For in vitro experiments, 10 point dose response curves of test compounds are assayed at final concentrations of 20 nM-10 μM. 10 point ½ serial dilutions of compound at 1000× of final assayed concentration are prepared in DMSO. Compound is then diluted to 10× in DPBS (DMSO concentration is now 1%). 10 μL of compound dilutions (at 10× diluted in DPBS) or 1% DMSO in DPBS are added to wells of a 96 deep well plate. 80 μL whole blood is added and incubated for 20 min at room temperature (10 μL of anti-mouse LY6G-FITC antibody (BD Pharmingen) and 10 μl of anti-mouse CD11b-APC BD Biosciences at 1 μg/mL final concentrations are added for final 10 min) 11 μL of 10× pre-warmed LTB4 (final concentration 20 nM) is added and incubated at 37° C. for 2 min. Reaction is stopped with 1.5 mL of 1× Phosflow Lyse/Fix from BD Biosciences (pre-warmed to 37° C.). The plate is sealed, vortexed, and incubated at 37° C. for 10 min. Cells are washed once with 1.5 mL DPBS then permeablized with 1 mL BD Perm/Wash buffer (BD Biosciences) for 10 min at room temperature. […]

T1 sequence (Q15722 whole entry): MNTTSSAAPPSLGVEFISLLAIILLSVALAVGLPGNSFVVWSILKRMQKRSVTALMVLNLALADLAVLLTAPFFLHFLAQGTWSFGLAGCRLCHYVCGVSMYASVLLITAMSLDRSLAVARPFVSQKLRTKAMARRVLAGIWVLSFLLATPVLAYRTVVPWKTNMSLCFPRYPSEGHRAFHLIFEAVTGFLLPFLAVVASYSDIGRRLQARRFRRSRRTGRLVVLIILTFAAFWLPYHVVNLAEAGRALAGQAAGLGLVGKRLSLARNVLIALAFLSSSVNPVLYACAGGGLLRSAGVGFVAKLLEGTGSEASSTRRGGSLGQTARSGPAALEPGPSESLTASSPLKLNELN

In general, Ki refers to a dissociation constant, usually derived from enzyme kinetics or from competition with a known ligand. Usually IC50 stands for the midpoint of a concentration-inhibition curve. A low value points to greater potency in that assay. As to `CCCc1c(NC(=O)CC(C)(C)C(=O)[O-])cccc1OCCCOc1cc(O)c(-c2ccc(F)cc2)cc1CC.[Na+]` [Example 2, Sodium 4-[[3-[3-[2-ethyl-4-(4-fluorophenyl)-5-hydroxy-phenoxy]propoxy]-2-propyl-phenyl]amino]-2,2-dimethyl-4-oxo-butanoate], the Ki turned out to be 5.5 nM at hBLT1 (read-out: absolute Ki) and 10.4 nM at hBLT1 (read-out: relative Ki). This compound had an IC50 in experiment [1] of 243 nM.
